In ChEMBL document CHEMBL3045561, “Feeding deterrents from Zanthoxylum schinifolium against two stored-product insects” (J Agric Food Chem, 2009):

Tests used:
[1] = test system: Tribolium castaneum; experiment: Feeding deterrent activity against adult Tribolium castaneum (red flour beetle) on compound pre-treated wheat flour disks assessed as relative food consumption rate at 300 ppm after 3 days by flour disk bioassay (reference value: 143.22 +/-4.32 ug/mg/day); format: functional
[2] = test system: Sitophilus zeamais; experiment: Feeding deterrent activity against adult Sitophilus zeamais on compound pretreated wheat flour disks assessed as relative food consumption rate at 10 ppm after 3 days by flour disk bioassay (reference value: 122.72 +/-4.32 ug/mg/day); format: functional
[3] = test system: Tribolium castaneum; experiment: Feeding deterrent activity against adult Tribolium castaneum (red flour beetle) on compound pre-treated wheat flour disks assessed as relative growth rate at 100 ppm after 3 days by flour disk bioassay (reference value: 29.49 +/-1.35 ug/mg/day); format: functional
[4] = test system: Tribolium castaneum; experiment: Feeding deterrent activity against adult Tribolium castaneum (red flour beetle) on compound pre-treated wheat flour disks at 1000 ppm after 3 days by flour disk bioassay; format: functional
[5] = test system: Sitophilus zeamais; experiment: Feeding deterrent activity against adult Sitophilus zeamais on compound pretreated wheat flour disks assessed as mortality at 300 ppm after 3 days by flour disk bioassay (reference value: 0%); format: functional
[6] = test system: Sitophilus zeamais; experiment: Feeding deterrent activity against adult Sitophilus zeamais on compound pretreated wheat flour disks assessed as mortality at 1000 ppm after 3 days by flour disk bioassay (reference value: 0%); format: functional
[7] = test system: Sitophilus zeamais; experiment: Feeding deterrent activity against adult Sitophilus zeamais on compound pretreated wheat flour disks assessed as mortality at 30 ppm after 3 days by flour disk bioassay (reference value: 0%); format: functional
[8] = test system: Sitophilus zeamais; experiment: Feeding deterrent activity against adult Sitophilus zeamais on compound pretreated wheat flour disks assessed as food utilization rate at 1000 ppm after 3 days by flour disk bioassay (reference value: 11.09 +/-1.12%); format: functional
[9] = test system: Sitophilus zeamais; experiment: Feeding deterrent activity against adult Sitophilus zeamais on compound pretreated wheat flour disks after 3 days by flour disk bioassay; format: functional, organism-based
[10] = test system: Tribolium castaneum; experiment: Feeding deterrent activity against adult Tribolium castaneum (red flour beetle) on compound pre-treated wheat flour disks assessed as mortality at 100 ppm after 3 days by flour disk bioassay (reference value: 0%); format: functional
[11] = test system: Tribolium castaneum; experiment: Feeding deterrent activity against adult Tribolium castaneum (red flour beetle) on compound pre-treated wheat flour disks assessed as mortality at 300 ppm after 3 days by flour disk bioassay (reference value: 0%); format: functional
[12] = test system: Tribolium castaneum; experiment: Feeding deterrent activity against adult Tribolium castaneum (red flour beetle) on compound pre-treated wheat flour disks assessed as mortality at 1000 ppm after 3 days by flour disk bioassay (reference value: 0%); format: functional
[13] = test system: Tribolium castaneum; experiment: Feeding deterrent activity against adult Tribolium castaneum (red flour beetle) on compound pre-treated wheat flour disks assessed as relative food consumption rate at 100 ppm after 3 days by flour disk bioassay (reference value: 143.22 +/-4.32 ug/mg/day); format: functional
[14] = test system: Tribolium castaneum; experiment: Feeding deterrent activity against adult Tribolium castaneum (red flour beetle) on compound pre-treated wheat flour disks assessed as relative food consumption rate at 1000 ppm after 3 days by flour disk bioassay (reference value: 143.22 +/-4.32 ug/mg/day); format: functional
[15] = test system: Sitophilus zeamais; experiment: Feeding deterrent activity against adult Sitophilus zeamais on compound pretreated wheat flour disks assessed as relative food consumption rate at 30 ppm after 3 days by flour disk bioassay (reference value: 122.72 +/-4.32 ug/mg/day); format: functional
[16] = test system: Sitophilus zeamais; experiment: Feeding deterrent activity against adult Sitophilus zeamais on compound pretreated wheat flour disks assessed as relative growth rate at 3 ppm after 3 days by flour disk bioassay (reference value: 13.61 +/-1.13 ug/mg/day); format: functional
[17] = test system: Tribolium castaneum; experiment: Feeding deterrent activity against adult Tribolium castaneum (red flour beetle) on compound pre-treated wheat flour disks at 300 ppm after 3 days by flour disk bioassay; format: functional
[18] = test system: Tribolium castaneum; experiment: Feeding deterrent activity against adult Tribolium castaneum (red flour beetle) on compound pre-treated wheat flour disks at 30 ppm after 3 days by flour disk bioassay; format: functional
[19] = test system: Tribolium castaneum; experiment: Feeding deterrent activity against adult Tribolium castaneum (red flour beetle) on compound pre-treated wheat flour disks at 100 ppm after 3 days by flour disk bioassay; format: functional
[20] = test system: Sitophilus zeamais; experiment: Feeding deterrent activity against adult Sitophilus zeamais on compound pretreated wheat flour disks assessed as relative food consumption rate at 100 ppm after 3 days by flour disk bioassay (reference value: 122.72 +/-4.32 ug/mg/day); format: functional
[21] = test system: Sitophilus zeamais; experiment: Feeding deterrent activity against adult Sitophilus zeamais on compound pretreated wheat flour disks at 30 ppm after 3 days by flour disk bioassay; format: functional
[22] = test system: Tribolium castaneum; experiment: Feeding deterrent activity against adult Tribolium castaneum (red flour beetle) on compound pre-treated wheat flour disks assessed as food utilization rate at 30 ppm after 3 days by flour disk bioassay (reference value: 20.59 +/-1.47%); format: functional
[23] = test system: Tribolium castaneum; experiment: Feeding deterrent activity against adult Tribolium castaneum (red flour beetle) on compound pre-treated wheat flour disks assessed as food utilization rate at 1000 ppm after 3 days by flour disk bioassay (reference value: 20.59 +/-1.47%); format: functional
[24] = test system: Tribolium castaneum; experiment: Feeding deterrent activity against adult Tribolium castaneum (red flour beetle) on compound pre-treated wheat flour disks assessed as relative growth rate at 300 ppm after 3 days by flour disk bioassay (reference value: 29.49 +/-1.35 ug/mg/day); format: functional
[25] = test system: Tribolium castaneum; experiment: Feeding deterrent activity against adult Tribolium castaneum (red flour beetle) on compound pre-treated wheat flour disks assessed as food utilization rate at 10 ppm after 3 days by flour disk bioassay (reference value: 20.59 +/-1.47%); format: functional
[26] = test system: Tribolium castaneum; experiment: Feeding deterrent activity against adult Tribolium castaneum (red flour beetle) on compound pre-treated wheat flour disks assessed as relative growth rate at 1000 ppm after 3 days by flour disk bioassay (reference value: 29.49 +/-1.35 ug/mg/day); format: functional
[27] = test system: Sitophilus zeamais; experiment: Feeding deterrent activity against adult Sitophilus zeamais on compound pretreated wheat flour disks at 1000 ppm after 3 days by flour disk bioassay; format: functional

Row | Compound | Activity [1] [µg/mg/day] | Activity [2] [µg/mg/day] | Activity [3] [µg/mg/day] | FDI [4] [%] | mortality at 300 ppm [5] [%] | mortality at 1000 ppm [6] [%] | mortality at 30 ppm [7] [%] | ECI [8] [%] | EC50 [9] [ppm] | mortality at 100 ppm [10] [%] | mortality at 300 ppm [11] [%] | mortality at 1000 ppm [12] [%] | Activity [13] [µg/mg/day] | Activity [14] [µg/mg/day] | Activity [15] [µg/mg/day] | Activity [16] [µg/mg/day] | FDI [17] [%] | FDI [18] [%] | FDI [19] [%] | Activity [20] [µg/mg/day] | other results
1 | CCCCCCCc1cc(=O)c2ccccc2n1C [SCHINIFOLINE] | 21.29 | 114.13 | 6.17 | 98.34 | 6 | 16 | 2 | 3.84 | 85.63 | 2 | 8 | 20 | 53.37 | 2.13 | 89.93 | 13.72 | 85.85 | 45.07 | 66.28 | 50.29 | FDI [21]: 26.69%; ECI [22]: 16.5%; ECI [23]: 3.29%; Activity [24]: 1.6 µg/mg/day; ECI [25]: 20.32%; Activity [26]: 0.07 µg/mg/day; FDI [27]: 92.15%
2 | COc1ccc2c(OC)c3ccoc3nc2c1OC [SKIMMIANINE] | 31.56 | 112.77 | 8.49 | 89.56 | 4 | 10 | 0 | 4.21 | 129.72 | 2 | 6 | 14 | 61.88 | 15.72 | 92.84 | 13.27 | 68.62 | 30.12 | 57.45 | 59.65 | FDI [21]: 26.12%; ECI [22]: 15.12%; ECI [23]: 7.81%; Activity [24]: 3.17 µg/mg/day; ECI [25]: 19.41%; Activity [26]: 1.23 µg/mg/day; FDI [27]: 82.43%
